One assay addresses T1, ENaC (Homo sapiens, UniProt P37088+P51168+P51170).
T1 construct: endogenous in cells; host or cells: T84 cells (provided by Dr. Min Goo Lee)
Description: ENaC short-circuit current in T84 cells. It counts as cell-based. The conditions noted are these: 30 μM applied 10 min prior to 100 µM amiloride. On the procedure:
(§1) Snapwell inserts containing CFTR-expressing FRT and T84 cells were mounted in Ussing chambers (Physiologic Instruments, San Diego, CA, USA). Forskolin, isorhamnetin, and CFTRinh-172 were added to the apical and basolateral bath solution. For FRT cells, the apical bath was filled with a half-Cl^− solution and the basolateral bath was filled with HCO^3--buffered solution to generate transepithelial Cl^− gradient (apical, 64 mM; basolateral, 129 mM), and the basolateral membrane was permeabilized with 250 µg/mL amphotericin B. For T84 cells, symmetrical HCO^3--buffered solutions were used, and ENaC was inhibited with amiloride (100 µM). All cells were bathed for a 20-min stabilization period and aerated with 95% O2/5% CO2 at 37 °C. Apical membrane current and short-circuit current were measured with an EVC4000 Multi-Channel V/I Clamp (World Precision Instruments, Sarasota, FL, USA) and recorded using PowerLab 4/35 (AD Instruments, Castle Hill, Australia). Data were collected and analyzed with ADInstruments acquisition software Labchart Pro 7 software. The sampling rate was 4 Hz.

Another assay deals with T2, CFTR (Mus musculus, UniProt P26361).
T2 construct: from tissue; host or cells: ocular surface of anesthetized CD-1 mice (in vivo)
The experiment in a line: Open-circuit ocular surface potential difference (PD) in CD-1 mice. The conditions noted are these: 30 μM isorhamnetin, amiloride and low Cl- perfusion. It counts as in vivo.

Another assay has as its target T3, human ΔF508-CFTR (Homo sapiens, UniProt P13569, DEL508-508).
T3 construct: expressed in transfected cells; host or cells: FRT (Fisher rat thyroid) cells, provided by Dr. Alan Verkman; 27 °C for 24 h
The experiment in a line: Apical membrane current in FRT cells expressing low-temperature-rescued ΔF508-CFTR. It counts as cell-based. As to the method:
as §1

T3 sequence (P13569 with tags, fused parts or gaps DEL508-508): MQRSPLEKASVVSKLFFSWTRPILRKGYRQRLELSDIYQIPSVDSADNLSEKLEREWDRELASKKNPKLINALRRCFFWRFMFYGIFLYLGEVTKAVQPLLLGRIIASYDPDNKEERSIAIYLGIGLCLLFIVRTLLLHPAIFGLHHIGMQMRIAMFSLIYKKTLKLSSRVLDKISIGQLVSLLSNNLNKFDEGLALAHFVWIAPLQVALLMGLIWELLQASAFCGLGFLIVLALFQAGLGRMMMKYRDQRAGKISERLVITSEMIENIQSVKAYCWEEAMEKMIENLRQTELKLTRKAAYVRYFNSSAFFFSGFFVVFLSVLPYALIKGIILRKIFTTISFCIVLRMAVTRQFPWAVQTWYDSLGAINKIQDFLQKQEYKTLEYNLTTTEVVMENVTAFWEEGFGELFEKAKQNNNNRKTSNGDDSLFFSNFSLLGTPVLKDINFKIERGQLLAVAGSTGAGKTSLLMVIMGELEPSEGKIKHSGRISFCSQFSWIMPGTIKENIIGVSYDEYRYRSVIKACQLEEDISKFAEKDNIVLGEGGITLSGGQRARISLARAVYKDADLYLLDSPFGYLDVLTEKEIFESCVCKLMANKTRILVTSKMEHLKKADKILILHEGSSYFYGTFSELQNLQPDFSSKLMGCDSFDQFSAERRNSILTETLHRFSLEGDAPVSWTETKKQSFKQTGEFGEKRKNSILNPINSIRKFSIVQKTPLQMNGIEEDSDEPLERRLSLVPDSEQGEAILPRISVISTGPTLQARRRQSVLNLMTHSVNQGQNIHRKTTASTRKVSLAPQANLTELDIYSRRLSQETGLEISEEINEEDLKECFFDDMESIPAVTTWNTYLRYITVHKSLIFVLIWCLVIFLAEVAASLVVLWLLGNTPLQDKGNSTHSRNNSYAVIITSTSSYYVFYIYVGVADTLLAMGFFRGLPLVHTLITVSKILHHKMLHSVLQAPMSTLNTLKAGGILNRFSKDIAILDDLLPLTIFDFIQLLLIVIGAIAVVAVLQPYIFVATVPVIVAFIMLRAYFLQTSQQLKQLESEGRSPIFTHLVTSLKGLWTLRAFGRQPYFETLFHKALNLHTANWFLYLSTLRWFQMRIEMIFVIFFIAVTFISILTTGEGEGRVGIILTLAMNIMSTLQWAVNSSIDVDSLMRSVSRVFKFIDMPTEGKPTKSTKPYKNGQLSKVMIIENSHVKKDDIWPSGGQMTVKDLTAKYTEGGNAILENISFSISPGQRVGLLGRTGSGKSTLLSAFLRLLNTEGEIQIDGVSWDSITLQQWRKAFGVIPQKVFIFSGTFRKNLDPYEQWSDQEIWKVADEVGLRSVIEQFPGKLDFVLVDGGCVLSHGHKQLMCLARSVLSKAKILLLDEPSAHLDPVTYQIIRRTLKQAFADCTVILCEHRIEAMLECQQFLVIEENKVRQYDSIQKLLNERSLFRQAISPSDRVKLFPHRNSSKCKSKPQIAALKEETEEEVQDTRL
T2 sequence (P26361 whole entry): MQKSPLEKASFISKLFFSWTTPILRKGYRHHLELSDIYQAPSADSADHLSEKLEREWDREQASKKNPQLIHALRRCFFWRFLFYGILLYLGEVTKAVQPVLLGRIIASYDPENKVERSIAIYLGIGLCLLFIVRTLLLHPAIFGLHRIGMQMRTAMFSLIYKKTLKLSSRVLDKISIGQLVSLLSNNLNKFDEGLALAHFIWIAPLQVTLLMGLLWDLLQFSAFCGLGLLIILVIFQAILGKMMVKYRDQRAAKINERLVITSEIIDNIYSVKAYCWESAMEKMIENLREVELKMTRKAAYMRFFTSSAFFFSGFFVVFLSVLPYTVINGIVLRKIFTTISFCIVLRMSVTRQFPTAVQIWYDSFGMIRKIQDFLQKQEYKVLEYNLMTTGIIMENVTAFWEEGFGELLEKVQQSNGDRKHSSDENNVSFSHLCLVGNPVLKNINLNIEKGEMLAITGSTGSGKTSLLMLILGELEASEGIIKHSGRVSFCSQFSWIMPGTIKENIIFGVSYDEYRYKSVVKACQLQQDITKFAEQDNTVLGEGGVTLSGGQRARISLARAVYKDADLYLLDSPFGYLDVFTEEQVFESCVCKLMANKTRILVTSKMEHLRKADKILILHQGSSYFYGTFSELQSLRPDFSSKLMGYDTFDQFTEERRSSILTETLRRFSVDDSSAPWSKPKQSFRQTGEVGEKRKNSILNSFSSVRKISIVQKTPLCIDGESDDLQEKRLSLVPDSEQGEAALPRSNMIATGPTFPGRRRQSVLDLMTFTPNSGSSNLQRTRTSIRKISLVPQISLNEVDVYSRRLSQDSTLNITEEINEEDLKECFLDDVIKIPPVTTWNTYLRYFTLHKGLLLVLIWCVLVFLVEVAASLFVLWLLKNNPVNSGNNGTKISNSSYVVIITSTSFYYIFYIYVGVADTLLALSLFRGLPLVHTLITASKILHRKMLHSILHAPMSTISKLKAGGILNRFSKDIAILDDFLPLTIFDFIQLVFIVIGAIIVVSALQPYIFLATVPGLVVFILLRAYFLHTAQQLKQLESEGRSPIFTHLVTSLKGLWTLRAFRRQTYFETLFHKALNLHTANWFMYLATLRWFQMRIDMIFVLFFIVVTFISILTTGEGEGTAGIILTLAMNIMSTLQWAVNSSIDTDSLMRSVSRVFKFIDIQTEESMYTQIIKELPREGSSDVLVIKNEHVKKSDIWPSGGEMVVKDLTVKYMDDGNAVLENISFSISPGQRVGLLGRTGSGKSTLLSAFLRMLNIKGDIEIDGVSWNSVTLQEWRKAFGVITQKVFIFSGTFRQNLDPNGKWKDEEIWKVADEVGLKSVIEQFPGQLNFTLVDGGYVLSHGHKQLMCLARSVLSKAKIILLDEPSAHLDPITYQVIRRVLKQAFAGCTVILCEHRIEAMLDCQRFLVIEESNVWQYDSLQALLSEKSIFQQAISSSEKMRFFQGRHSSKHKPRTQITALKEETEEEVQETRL
T1 sequence (P51168 whole entry): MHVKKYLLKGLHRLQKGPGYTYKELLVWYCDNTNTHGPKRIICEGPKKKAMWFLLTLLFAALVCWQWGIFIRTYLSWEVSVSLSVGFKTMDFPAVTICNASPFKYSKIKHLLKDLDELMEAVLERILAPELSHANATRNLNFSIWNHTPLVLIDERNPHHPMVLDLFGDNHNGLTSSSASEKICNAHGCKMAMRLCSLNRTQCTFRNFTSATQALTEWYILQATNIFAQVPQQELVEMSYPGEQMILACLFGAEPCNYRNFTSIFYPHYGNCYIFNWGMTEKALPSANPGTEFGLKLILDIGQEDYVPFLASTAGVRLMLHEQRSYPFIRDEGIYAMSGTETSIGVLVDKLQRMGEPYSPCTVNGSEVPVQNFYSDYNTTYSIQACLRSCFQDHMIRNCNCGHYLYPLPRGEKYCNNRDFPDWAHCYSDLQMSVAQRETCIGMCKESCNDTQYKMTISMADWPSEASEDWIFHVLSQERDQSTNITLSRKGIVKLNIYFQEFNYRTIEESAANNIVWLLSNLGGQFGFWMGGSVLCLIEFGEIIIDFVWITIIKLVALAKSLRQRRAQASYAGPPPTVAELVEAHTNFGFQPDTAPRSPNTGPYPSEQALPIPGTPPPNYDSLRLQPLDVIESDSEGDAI
T1 sequence (P37088 whole entry): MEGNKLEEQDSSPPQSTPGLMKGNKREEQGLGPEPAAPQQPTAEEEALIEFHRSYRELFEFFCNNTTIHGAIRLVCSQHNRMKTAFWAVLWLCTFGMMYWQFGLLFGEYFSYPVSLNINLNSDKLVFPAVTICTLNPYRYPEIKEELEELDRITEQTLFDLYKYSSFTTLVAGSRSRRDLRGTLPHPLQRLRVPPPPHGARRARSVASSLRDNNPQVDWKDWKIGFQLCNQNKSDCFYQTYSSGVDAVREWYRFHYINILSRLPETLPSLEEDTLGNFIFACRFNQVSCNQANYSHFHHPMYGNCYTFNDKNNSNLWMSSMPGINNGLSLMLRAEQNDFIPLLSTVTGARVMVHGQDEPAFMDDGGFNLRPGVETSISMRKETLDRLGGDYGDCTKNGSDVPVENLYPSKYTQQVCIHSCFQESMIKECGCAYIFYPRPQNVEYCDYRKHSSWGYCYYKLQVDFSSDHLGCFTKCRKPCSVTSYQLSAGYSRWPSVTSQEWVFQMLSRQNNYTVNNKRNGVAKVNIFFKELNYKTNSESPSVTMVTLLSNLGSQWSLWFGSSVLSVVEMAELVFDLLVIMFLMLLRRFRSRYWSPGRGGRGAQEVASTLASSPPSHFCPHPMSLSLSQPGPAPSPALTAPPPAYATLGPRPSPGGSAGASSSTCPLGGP
T1 sequence (P51170 whole entry): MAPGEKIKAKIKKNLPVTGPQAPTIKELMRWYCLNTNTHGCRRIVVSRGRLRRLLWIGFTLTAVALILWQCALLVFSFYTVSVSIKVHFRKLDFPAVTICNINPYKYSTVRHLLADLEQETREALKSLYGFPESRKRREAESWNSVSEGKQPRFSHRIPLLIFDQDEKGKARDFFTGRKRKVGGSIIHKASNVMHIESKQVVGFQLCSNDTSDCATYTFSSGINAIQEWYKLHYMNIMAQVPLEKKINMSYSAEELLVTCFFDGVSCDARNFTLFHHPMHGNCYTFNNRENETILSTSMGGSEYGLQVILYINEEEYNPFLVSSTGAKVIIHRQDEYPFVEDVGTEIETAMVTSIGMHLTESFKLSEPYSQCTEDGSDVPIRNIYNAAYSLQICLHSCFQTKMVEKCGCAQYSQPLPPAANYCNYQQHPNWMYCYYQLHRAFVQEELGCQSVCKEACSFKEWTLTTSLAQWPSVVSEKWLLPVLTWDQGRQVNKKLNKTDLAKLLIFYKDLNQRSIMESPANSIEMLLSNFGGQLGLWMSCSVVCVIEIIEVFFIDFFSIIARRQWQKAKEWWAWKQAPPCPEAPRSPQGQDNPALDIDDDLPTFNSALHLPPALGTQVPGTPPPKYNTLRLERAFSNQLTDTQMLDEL

Take `COc1cc(-c2oc3cc(O)cc(O)c3c(=O)c2O)ccc1O` [isorhamnetin]: on ENaC, the “ENaC function (short-circuit current)” value is given as “did not alter”. Also, the “ocular surface PD” value at CFTR is on record as “significantly hyperpolarized”. On human ΔF508-CFTR (30 μM isorhamnetin), the “ΔF508-CFTR chloride current activated by 20 μM forskolin” value is recorded as “doubled”. On human ΔF508-CFTR (dose-dependent, ΔF508-CFTR rescued at 27 °C for 24 h), the “forskolin-induced ΔF508-CFTR chloride current” value is given as “strongly potentiated”.
